Measurements published in patent US20090270371A1, “QUINOLINE DERIVATIVES USEFUL IN THE TREATMENT OF MGLUR5 RECEPTOR-MEDIATED DISORDERS” (priority 2005, published 2009).

molecular target: T1, rat mGluR5 receptors (Rattus norvegicus, UniProt P31424); experiment: mGluR5 receptor binding test, rat cerebro-cortical membrane preparation, [3H]-M-MPEP; details: affinity for rat mGluR5 receptors; [3H]-M-MPEP (2 nM) radioligand
T1 construct: rat cerebro-cortical membrane preparation was used; from tissue; host or cells: rat cerebral cortex membranes
In short: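 Radioligand binding used rat cerebro-cortical membranes with 2 nM [3H]-M-MPEP. Nonspecific binding was defined with 10 μM M-MPEP. The method follows a modification of a published procedure.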

T1 sequence (P31424 21-1203): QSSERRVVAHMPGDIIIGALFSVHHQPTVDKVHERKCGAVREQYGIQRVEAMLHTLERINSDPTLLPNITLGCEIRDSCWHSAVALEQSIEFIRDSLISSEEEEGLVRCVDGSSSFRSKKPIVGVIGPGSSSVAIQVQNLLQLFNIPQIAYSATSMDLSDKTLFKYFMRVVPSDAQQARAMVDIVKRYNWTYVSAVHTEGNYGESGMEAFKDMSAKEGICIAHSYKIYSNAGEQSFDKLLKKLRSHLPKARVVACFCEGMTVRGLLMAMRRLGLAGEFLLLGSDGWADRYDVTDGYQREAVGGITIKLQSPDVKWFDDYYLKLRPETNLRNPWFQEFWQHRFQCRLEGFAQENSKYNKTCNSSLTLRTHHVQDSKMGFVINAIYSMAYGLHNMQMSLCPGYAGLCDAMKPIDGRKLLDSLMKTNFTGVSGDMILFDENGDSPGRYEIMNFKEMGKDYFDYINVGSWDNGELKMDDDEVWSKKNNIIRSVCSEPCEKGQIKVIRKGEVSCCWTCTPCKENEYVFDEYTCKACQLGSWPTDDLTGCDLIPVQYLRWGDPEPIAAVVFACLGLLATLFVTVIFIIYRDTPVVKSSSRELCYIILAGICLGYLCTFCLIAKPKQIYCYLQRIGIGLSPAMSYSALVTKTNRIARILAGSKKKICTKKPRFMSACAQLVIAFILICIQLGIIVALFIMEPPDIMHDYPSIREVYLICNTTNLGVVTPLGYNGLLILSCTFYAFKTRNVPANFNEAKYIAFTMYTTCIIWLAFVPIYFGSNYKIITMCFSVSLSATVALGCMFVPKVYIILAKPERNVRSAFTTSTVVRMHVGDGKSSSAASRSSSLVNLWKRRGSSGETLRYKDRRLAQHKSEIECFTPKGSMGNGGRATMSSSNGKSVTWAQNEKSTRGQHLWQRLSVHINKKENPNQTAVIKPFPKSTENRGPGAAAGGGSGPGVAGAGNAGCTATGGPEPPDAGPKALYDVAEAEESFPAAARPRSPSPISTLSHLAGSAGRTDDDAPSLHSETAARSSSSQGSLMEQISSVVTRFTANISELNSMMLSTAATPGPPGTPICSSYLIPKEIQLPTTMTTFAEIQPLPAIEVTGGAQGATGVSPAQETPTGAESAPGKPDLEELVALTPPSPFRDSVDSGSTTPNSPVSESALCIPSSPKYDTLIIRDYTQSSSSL

Row | Compound | Ki [nM]
1 | O=S(=O)(c1ccc(F)cc1)c1cnc2c(F)cccc2c1N1CCOCC1 [Compound 337] | > 500
2 | COc1ccc(S(=O)(=O)c2cnc3c(F)cccc3c2N2CCOCC2)cc1 [Compound 338] | > 500
3 | O=S(=O)(c1ccc(Cl)cc1)c1cnc2c(F)cccc2c1N1CCOCC1 [Compound 339] | 200 to 500
4 | O=S(=O)(c1cccc(F)c1)c1cnc2c(F)cccc2c1N1CCOCC1 [Compound 340] | > 500
5 | Cc1ccc(S(=O)(=O)c2cnc3c(F)cccc3c2N2CCOCC2)cc1F [Compound 341] | 200 to 500
6 | Cc1ccc(S(=O)(=O)c2cnc3c(F)cccc3c2N2CCOCC2)cc1 [Compound 342] | > 500
7 | O=S(=O)(c1ccc(F)c(F)c1)c1cnc2c(F)cccc2c1N1CCOCC1 [Compound 343] | 200 to 500
8 | O=S(=O)(c1ccc(F)c(Cl)c1)c1cnc2c(F)cccc2c1N1CCOCC1 [Compound 344] | < 200
9 | O=S(=O)(c1ccc(Cl)c(Cl)c1)c1cnc2c(F)cccc2c1N1CCOCC1 [Compound 345] | < 200
10 | N#Cc1ccc2ncc(S(=O)(=O)c3ccc(F)cc3)c(N3CCOCC3)c2c1 [Compound 346] | 200 to 500
11 | O=S(=O)(c1ccc(Cl)cc1)c1cnc2c(Cl)ccc(Cl)c2c1N1CCOCC1 [Compound 347] | 200 to 500
12 | O=S(=O)(c1ccc(Cl)cc1)c1cnc2ccc(F)cc2c1N1CCC(F)(F)CC1 [Compound 348] | 200 to 500
13 | CC1CCN(c2c(S(=O)(=O)c3ccc(F)c(Cl)c3)cnc3ccc(F)cc23)CC1 [Compound 349] | 200 to 500
14 | O=S(=O)(c1ccc(F)cc1)c1cnc2cc(Cl)ccc2c1N1CCC(CO)CC1 [Compound 350] | 200 to 500
15 | O=S(=O)(c1cc(F)cc(F)c1)c1cnc2cc(Cl)ccc2c1N1CCC(CO)CC1 [Compound 351] | 200 to 500
